The subject of experiment [1] is K562. In words: Antiproliferative activity against human K562 cells by MTT colorimetric assay. In kind it is functional, cell-based.
A further experiment deals with HL-60. The experiment can be described thus: Antiproliferative activity against human HL-60 cells by MTT colorimetric assay. In kind it is functional, cell-based. A general note: Formazan colour is commonly taken as a measure of viable cells.
In another experiment the test system is Jurkat. The experiment can be described thus: Antiproliferative activity against human Jurkat cells by MTT colorimetric assay. In kind it is functional, cell-based.
The test system of experiment [2] is Raji. The experiment can be described thus: Antiproliferative activity against human Raji cells by MTT colorimetric assay. The format is functional, cell-based.
For another experiment, the system named is MCF7. The experiment can be described thus: Antiproliferative activity against human MCF7 cells by MTT colorimetric assay. The format is functional, cell-based.
Another experiment deals with MDA-MB-231. The experiment can be described thus: Antiproliferative activity against human MDA-MB-231 cells by MTT colorimetric assay. In kind it is functional, cell-based.
The next experiment concerns HeLa. In words: Antiproliferative activity against human HeLa cells by MTT colorimetric assay. In kind it is functional, cell-based.
Experiment [3] relates to A549. The experiment can be described thus: Antiproliferative activity against human A549 cells by MTT colorimetric assay. The format is functional, cell-based.
The subject of the next experiment is MRC5. The experiment can be described thus: Antiproliferative activity against human MRC5 cells by MTT colorimetric assay. The format is functional, cell-based.
Experiment [4] deals with A549. The experiment can be described thus: Potency index, ratio of Doxorubicin IC50 to test compound IC50 for antiproliferative activity against human A549 cells by MTT colorimetric assay. The format is functional.
In experiment [5] the test system is K562. The experiment can be described thus: Induction of cell cycle arrest in human K562 cells assessed as decrease in accumulation of cells at S phase measured after 72 hrs by PI staining based flow cytometry analysis relative to control. In kind it is functional. Set-up: scale not given: the % may be the effect or the level left. For orientation: A flow cytometer gives signals particle by particle.

Experiment [6] relates to K562. The experiment can be described thus: Induction of cell cycle arrest in human K562 cells assessed as increase in accumulation of cells at G2/M phase measured after 72 hrs by PI staining based flow cytometry analysis relative to control. The format is functional.
For experiment [7], the system named is K562. In words: Induction of cell cycle arrest in human K562 cells assessed as decrease in accumulation of cells at subG1 phase measured after 72 hrs by PI staining based flow cytometry analysis relative to control. In kind it is functional. Further details: scale not given: the % may be the effect or the level left.
A further experiment deals with Cell membrane. In words: Induction of cell membrane damage in human K562 cells measured after 72 hrs by acridine orange and ethidium bromide staining based analysis relative to control. The format is cell membranes.
In experiment [8] the test system is K562. In words: Induction of apoptosis in human K562 cells assessed as morphological changes measured after 72 hrs relative to control. The format is functional.
The test system of experiment [9] is Raji. In words: Potency index, ratio of Doxorubicin IC50 to test compound IC50 for antiproliferative activity against human Raji cells by MTT colorimetric assay. In kind it is functional.

Each structure is given as a SMILES string.

The record followed here is ChEMBL document CHEMBL5500340, “Synthesis and biological activity of thiophene bioisosteres of natural styryl lactone goniofufurone and related compounds” (Eur J Med Chem, 2024).

Regarding `O=C1C[C@H]2O[C@H]([C@@H](O)c3cccs3)[C@H](O)[C@H]2O1`, the half-maximal inhibitory concentration (IC50) with K562 [1] was 5.78 µM; in the experiment with HL-60, 13 µM; with Jurkat, 2.65 µM; with Raji [2] it was 15 µM; with MCF7, 44.9 µM; in the experiment with MDA-MB-231, 98.8 µM. In addition, the IC50 with HeLa is 6.21 µM; with A549 [3], 18.8 µM; in the experiment on MRC5, 95.6 µM.
As for `O=C(/C=C/c1ccc(F)cc1)O[C@H](c1cccs1)[C@H]1O[C@@H]2CC(=O)O[C@@H]2[C@H]1O`, the half-inhibitory concentration (IC50) with K562 [1] is 6.56 µM; in the experiment on HL-60, 18.9 µM; in the experiment on Jurkat it was 19.7 µM; in the experiment with Raji [2], 23.9 µM; in the experiment on MCF7, 10.5 µM; in the experiment with MDA-MB-231, 2.11 µM. The IC50 with HeLa is 4.63 µM; with A549 [3], 13.3 µM; in the experiment on MRC5 it was more than 100 µM.
Consider `O=C(/C=C/c1ccc(F)cc1)O[C@@H]1[C@H]2OC(=O)C[C@H]2O[C@@H]1[C@H](OC(=O)/C=C/c1ccc(F)cc1)c1cccs1`, for which the IC50 in the experiment with K562 [1] amounted to 0.99 µM; in the experiment with HL-60, 14.7 µM; with Jurkat, 10.7 µM; with Raji [2], 22.1 µM; with MCF7, 5.91 µM; with MDA-MB-231, 9.55 µM. In addition, the IC50 is 4.32 µM in the experiment on HeLa, 9.28 µM with A549 [3] and more than 100 µM with MRC5.
For `O=C(c1cccs1)[C@H]1OC(O)[C@H](O)[C@H]1O` (some centres undefined), the IC50 came out at 6.34 µM with K562 [1]; 8.08 µM in the experiment with HL-60; 34 µM in the experiment on Jurkat; 20.5 µM with Raji [2]; 15.6 µM in the experiment with MCF7; 16.3 µM with MDA-MB-231. Further, the results for the concentration for half-maximal inhibition (IC50) with HeLa, with A549 [3] and in the experiment with MRC5 were 5.58 µM, 5.61 µM and more than 100 µM, respectively.
With `O=C1C[C@H]2O[C@H]([C@H](O)c3cccs3)[C@H](O)[C@H]2O1`, the IC50 with K562 [1] is 0.03 µM; in the experiment on HL-60 it was 2.07 µM; in the experiment on Jurkat, 1.01 µM; with Raji [2], 5.97 µM; in the experiment on MCF7, 3.38 µM; in the experiment with MDA-MB-231, 2.88 µM. Also, the half-inhibitory concentration (IC50) was 0.11 µM in the experiment on HeLa, 1.2 µM with A549 [3] and more than 100 µM in the experiment on MRC5. Moreover, the “Ratio IC50” value with A549 [4] came out at 4. For the same compound, the Activity with K562 [5] is 24.2%; in the experiment with K562 [6] it was 31.2%; in the experiment with K562 [7], more than 85%; with Cell membrane, 40.6%; in the experiment on K562 [8], 196.5%.
With `O=C1C[C@H]2O[C@@H](C(=O)c3cccs3)[C@H](O)[C@H]2O1`, the IC50 in the experiment on K562 [1] came out at 2.67 µM; in the experiment with HL-60, 1.09 µM; in the experiment on Jurkat it was 1.69 µM; with Raji [2] it was 5.36 µM; in the experiment on MCF7 it was 1.02 µM; with MDA-MB-231, 5.21 µM. Also, the IC50 was 3.89 µM in the experiment on HeLa, 18.4 µM with A549 [3] and more than 100 µM in the experiment with MRC5.
With `CC1(C)O[C@H]2O[C@H]([C@@H](O)c3cccs3)[C@H](O)[C@H]2O1`, the half-inhibitory concentration (IC50) turned out to be 1.02 µM with K562 [1]; 8.46 µM in the experiment on HL-60; 4.41 µM with Jurkat; 1.36 µM with Raji [2]; 2.63 µM in the experiment with MCF7; 11.6 µM in the experiment with MDA-MB-231. Besides, the figures for the IC50 in the experiment with HeLa, with A549 [3] and with MRC5 were 1.59 µM, 6.58 µM and more than 100 µM, respectively. Moreover, in the experiment on Raji [9], the “Ratio IC50” value stood at 2.
Regarding `O=C(/C=C/c1ccccc1)O[C@@H]1[C@H]2OC(=O)C[C@H]2O[C@@H]1[C@H](OC(=O)/C=C/c1ccccc1)c1cccs1`, the IC50 came to 8.36 µM with K562 [1]; 18.2 µM in the experiment on HL-60; 10.3 µM in the experiment with Jurkat; 11.1 µM in the experiment on Raji [2]; 10.8 µM in the experiment on MCF7; 12.3 µM in the experiment with MDA-MB-231. Moreover, the IC50 is 23.8 µM in the experiment on HeLa, 35.6 µM in the experiment on A549 [3] and more than 100 µM in the experiment with MRC5.
Regarding `CC1(C)O[C@H]2O[C@H]([C@H](O)c3cccs3)[C@H](O)[C@H]2O1`, the IC50 in the experiment on K562 [1] came out at 0.89 µM; in the experiment with HL-60 it was 1.05 µM; in the experiment with Jurkat, 1.06 µM; in the experiment with Raji [2], 3.45 µM; in the experiment on MCF7, 4.34 µM; in the experiment with MDA-MB-231, 8.12 µM. In addition, the values for the 50% inhibitory concentration (IC50) in the experiment with HeLa, in the experiment with A549 [3] and with MRC5 were 2.85 µM, 7.32 µM and more than 100 µM, respectively.
In the case of `O=C1C[C@H]2O[C@H](C(=O)c3cccs3)[C@H](O)[C@H]2O1`, the IC50 stood at 18.4 µM with K562 [1]; 39.6 µM with HL-60; 25.3 µM in the experiment with Jurkat; 11.4 µM in the experiment with Raji [2]; 23.4 µM in the experiment with MCF7; 8.93 µM with MDA-MB-231. In addition, the figures for the concentration for half-maximal inhibition (IC50) with HeLa, in the experiment with A549 [3] and in the experiment on MRC5 were 12.4 µM, 14.9 µM and more than 100 µM, respectively.
For `O=C1C[C@H]2O[C@H]([C@@H](O)c3ccccc3)[C@H](O)[C@H]2O1`, the Activity with K562 [7] is more than 55%; with Cell membrane it was 57.3%; in the experiment on K562 [8], 254.2%.
Turning to `O=C1C[C@H]2O[C@H]([C@H](O)c3ccccc3)[C@H](O)[C@H]2O1`, the IC50 with HL-60 and with MRC5 was more than 100 µM throughout. For the same compound, the figures for the Activity in the experiment with Cell membrane and in the experiment with K562 [8] were 31.5% and 145.1%, respectively.

For orientation: IC50 means the concentration that inhibits the measured activity by half.
